The text below walks through data of PubChem BioAssay (NCI).

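These data come from cells grown in 96-well plates and exposed to compound for 48 hours at five concentrations. At the GI50, growth is halved. TGI denotes the concentration required for complete inhibition of growth.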

One test has as its system A498 renal. As to the kind of experiment: growth of human tumour cells (NCI), 48 h.
`CCN(CC)c1ccc(-c2cc(-c3cc(OC)c(OC)c(OC)c3)nc(N3CCOCC3)c2C#N)cc1`: the GI50 is 2.88 µM and the TGI worked out at 39.5 µM.

`C=C(Br)C(C)(Br)CCC(Br)C(C)(C)Cl` (configuration not stated): the TGI amounted to 45.5 µM.

As for `O=C(CCc1nnc2sc(-c3ccc(Cl)cc3Cl)nn12)c1nc2ncccc2[nH]1`, the GI50 is 1.11 µM and the TGI turned out to be 2.41 µM.

For `NS(=O)(=O)c1cc(Br)c(N=Nc2ccc(O)c3ncccc23)c(Br)c1`, the TGI came out at 67.9 µM.

With `COc1ccc(-c2nnc(COc3ccc(C(=O)/C=C/c4ccco4)cc3)o2)cc1`, the GI50 was 11.4 µM and the TGI amounted to 23.6 µM.

With `OCc1ccc(-c2ccc(-c3ccc(CO)s3)o2)s1`, the TGI is 0.0278 µM.

The molecule `Cc1ccccc1S(=O)(=O)OC1NS(=O)(=O)c2ccccc21` (configuration not stated) gave a TGI of over 100 µM.

Take `O=C(/C=C/c1ccncc1)c1cc(Cl)ccc1O`: the GI50 was 6.96 µM and the TGI was 21.8 µM.

Regarding `Cc1cc(/C=C/c2ccc3cc(N(C)C)ccc3[n+]2C)c(C)n1-c1ccccc1`, the GI50 was 0.286 µM and the TGI amounted to 2.23 µM.

For the next test, the system named is OVCAR-8 ovarian. The test can be described thus: growth of human tumour cells (NCI), 48 h.
Take `O=C1OC(O)[C@@H]2[C@H]1[C@H]1CC[C@@H]2O1` (some centres not stated): the GI50 is over 100 µM and the TGI is over 100 µM.

For `O=C1c2cc3c(cc2-c2c1c1ccc(F)cc1c(=O)n2CCCNCCO)OCO3`, the GI50 is 0.0538 µM and the TGI is 0.356 µM.

Turning to `COC(=O)C1=C(C)NC(C)=C(C(=O)OCCCN2CCC(c3ccccc3)(c3ccccc3)CC2)C1c1cccc([N+](=O)[O-])c1` (configuration not stated), the TGI came to 3.39 µM.

Regarding `CCCCCCCCC/C=C1\CCC(CN2CCOCC2)C1=O` (configuration not stated), the TGI came to 3.13 µM.

In turn, `N=Nc1c(OC(=O)Nc2cccc(Cl)c2)[nH]c2ccccc12` showed a TGI of 20 µM.

As for `CC1(C)C2CCC(=O)C1CC2` (configuration not stated), the TGI was over 100 µM.

For the molecule `Fc1cc2[nH]ncc2c2c3c(c(-c4cn[nH]c4)nc12)CCCC3`, the GI50 was 1.48 µM and the TGI is over 30.2 µM.

As to `C=C1C(=O)O[C@H]2[C@H]1CC/C(COC(=O)c1c[nH]c3ccccc13)=C\CC[C@@]1(C)O[C@@H]21`, the GI50 was 0.282 µM and the TGI is 1.03 µM.

For the molecule `C/C(=N\NC(=S)NC(CCC(=O)O)C(=O)O)c1ccccn1` (configuration not stated), the TGI is over 100 µM.

For `CCN1CCN(c2nc(C)cc(N(CCNc3ccnc4cc(Cl)ccc34)Cc3ccc4c(c3)OCO4)n2)CC1`, the GI50 is 2.69 µM and the TGI was 7.9 µM.

For the molecule `CCN(CC)c1ccc(-c2cc(-c3cc(OC)c(OC)c(OC)c3)nc(N3CCOCC3)c2C#N)cc1`, the GI50 is 1.91 µM and the TGI was over 100 µM.

For `C=C(Br)C(C)(Br)CCC(Br)C(C)(C)Cl` (configuration not stated), the TGI is 35.7 µM.

As to `O=C(CCc1nnc2sc(-c3ccc(Cl)cc3Cl)nn12)c1nc2ncccc2[nH]1`, the GI50 was 3.44 µM and the TGI was over 100 µM.

On to `NS(=O)(=O)c1cc(Br)c(N=Nc2ccc(O)c3ncccc23)c(Br)c1`, for which the TGI was over 100 µM.

Turning to `COc1ccc(-c2nnc(COc3ccc(C(=O)/C=C/c4ccco4)cc3)o2)cc1`, the GI50 was 3.04 µM and the TGI is 10.1 µM.

`OCc1ccc(-c2ccc(-c3ccc(CO)s3)o2)s1` displayed a TGI of 61.4 µM.

As to `Cc1ccccc1S(=O)(=O)OC1NS(=O)(=O)c2ccccc21` (configuration not stated), the TGI is over 100 µM.

As for `O=C(/C=C/c1ccncc1)c1cc(Cl)ccc1O`, the GI50 is 23.6 µM and the TGI came out at 57 µM.

As for `Cc1cc(/C=C/c2ccc3cc(N(C)C)ccc3[n+]2C)c(C)n1-c1ccccc1`, the GI50 was 0.143 µM and the TGI was 0.76 µM.

The subject of the next test is OVCAR-3 ovarian. The test can be described thus: growth of human tumour cells (NCI), 48 h.
With `O=C1OC(O)[C@@H]2[C@H]1[C@H]1CC[C@@H]2O1` (some centres not stated), the GI50 was 32.8 µM and the TGI came to 69.2 µM.

For `O=C1c2cc3c(cc2-c2c1c1ccc(F)cc1c(=O)n2CCCNCCO)OCO3`, the GI50 was 0.0751 µM and the TGI stood at 0.826 µM.

On to `COC(=O)C1=C(C)NC(C)=C(C(=O)OCCCN2CCC(c3ccccc3)(c3ccccc3)CC2)C1c1cccc([N+](=O)[O-])c1` (configuration not stated), for which the TGI amounted to 2.8 µM.

For the molecule `CCCCCCCCC/C=C1\CCC(CN2CCOCC2)C1=O` (configuration not stated), the TGI was 24.9 µM.

In turn, `N=Nc1c(OC(=O)Nc2cccc(Cl)c2)[nH]c2ccccc12` gave a TGI of 6.6 µM.

Turning to `CC1(C)C2CCC(=O)C1CC2` (configuration not stated), the TGI was over 100 µM.

For `Fc1cc2[nH]ncc2c2c3c(c(-c4cn[nH]c4)nc12)CCCC3`, the GI50 was 1.53 µM and the TGI was 6.91 µM.

With `C=C1C(=O)O[C@H]2[C@H]1CC/C(COC(=O)c1c[nH]c3ccccc13)=C\CC[C@@]1(C)O[C@@H]21`, the GI50 is 0.207 µM and the TGI was found to be 0.483 µM.

`C/C(=N\NC(=S)NC(CCC(=O)O)C(=O)O)c1ccccn1` (configuration not stated) gave a TGI of over 100 µM.

On to `CCN1CCN(c2nc(C)cc(N(CCNc3ccnc4cc(Cl)ccc34)Cc3ccc4c(c3)OCO4)n2)CC1`, for which the GI50 was 2.28 µM and the TGI stood at 7.02 µM.

In the case of `CCN(CC)c1ccc(-c2cc(-c3cc(OC)c(OC)c(OC)c3)nc(N3CCOCC3)c2C#N)cc1`, the GI50 was 3.19 µM and the TGI stood at 20.9 µM.

Consider `C=C(Br)C(C)(Br)CCC(Br)C(C)(C)Cl` (configuration not stated), for which the TGI was found to be 33.5 µM.

`O=C(CCc1nnc2sc(-c3ccc(Cl)cc3Cl)nn12)c1nc2ncccc2[nH]1`: the GI50 is 1.52 µM and the TGI was found to be 3.1 µM.

As to `NS(=O)(=O)c1cc(Br)c(N=Nc2ccc(O)c3ncccc23)c(Br)c1`, the TGI is over 100 µM.

On to `COc1ccc(-c2nnc(COc3ccc(C(=O)/C=C/c4ccco4)cc3)o2)cc1`, for which the GI50 is 1.95 µM and the TGI turned out to be 3.95 µM.

The molecule `OCc1ccc(-c2ccc(-c3ccc(CO)s3)o2)s1` yielded a TGI of 0.791 µM.

Turning to `Cc1ccccc1S(=O)(=O)OC1NS(=O)(=O)c2ccccc21` (configuration not stated), the TGI is over 100 µM.

Consider `O=C(/C=C/c1ccncc1)c1cc(Cl)ccc1O`, for which the GI50 is 17.3 µM and the TGI was 32.9 µM.

Regarding `Cc1cc(/C=C/c2ccc3cc(N(C)C)ccc3[n+]2C)c(C)n1-c1ccccc1`, the GI50 is 0.197 µM and the TGI was 1.42 µM.
